Test results taken from US20240344028A1, “Serum-free media for producing adipocytes for animal consumption” (Mosa Meat B.V., priority 2021, published 2024).

The molecules below were run on Adipogenic progenitor cells (assay: 2D adipogenic differentiation with DMAD components removed or at changed concentration). Conditions: 50% of the standard concentration vs 100% control.
Assay type: cell-based, bovine
Description: (§1) At 90% confluence, proliferated MSCs were trypsinized and seeded in a 96-well collagen coated cell culture plate at 30,000 cells/cm^2 in SF-PM. After 24 hours, adipogenesis was induced by changing SF-PM to DMAD (the serum-free differentiation medium as depicted in Example 1), which was maintained on the cells for a period of 12 days with media changes every 3-4 days. As a control differentiation medium (ctrl), DMEM/F12 with 3% FBS was supplemented with 4 conventional adipogenic inducers (IBMX (Sigma Aldrich-15879; 0.5 mM), dexamethasone (Sigma Aldrich-D4902; 10 μM), rosiglitazone (Sigma Aldrich-R2408; 5 μM) and insulin (Peprotech-10-365; 10 μM)). All 4 inducers were used for the first 3 days of culture and only insulin and rosiglitazone were used for the remaining 9 days.
(§2) Cells were fixed on days 6 and 12 with 4% PFA for 20 minutes at room temperature and washed twice with PBS. Cells were then stained with Hoechst (ThermoFisher 493/503, 1:2000) and BODIPY (Sigma Aldrich 345880, 1:1000) in PBS for 30 minutes. Adipogenic differentiation was quantified using the ImageXPress Pico High Content Analyser (HCA; Molecular devices). The parameters measured were total area of lipid, lipid droplet average area and percentage of positive cells. For the percentage of positive cells, the HCA software assigned BODIPY immunoreactivity to the nearest nuclei, (i.e. a positive cell) and the number of BODIPY positive nuclei was then divided by the total number of nuclei.
Adipogenic progenitor cells were cultured as described in Example 2, with the exception that single components (FGF, EGF, insulin, vitamin C, hydrocortisone, BMP4, lipid concentrate, HEPES, putrescine, progesterone) of the DMAD medium (the serum-free differentiation medium as depicted in Example 1) were removed. In addition, different concentrations (50% and 200%) were tested for EGF, FGF, vitamin C, hydrocortisone and progesterone.

Molecule	effect on adipogenesis (total lipid area) of decreasing the component's concentration in DMAD
EGF: recombinant human EGF, AF-100-15 from Peprotech (NSDSECPLSHDGYCLHDGVCMYIEALDKYACNCVVGYIGERCQYRDLKWWELR; Epidermal growth factor; UniProt P01133 971-1023, looked up)	significantly decreased adipogenesis

Same assay, conditions: single component removed from DMAD

Molecule	effect of removing the component from DMAD on percentage of positive cells and total lipid area
O=S(=O)(O)CCN1CCN(CCO)CC1 [HEPES, 4-(2-hydroxyethyl)-1-piperazineethanesulfonic acid]	did not have significant effects
C[C@]12CCC(=O)C=C1CC[C@@H]1[C@@H]2[C@@H](O)C[C@@]2(C)[C@H]1CC[C@]2(O)C(=O)CO [hydrocortisone]	significantly decreased differentiation
CC(=O)[C@H]1CC[C@H]2[C@@H]3CCC4=CC(=O)CC[C@]4(C)[C@H]3CC[C@]12C [progesterone]	did not have significant effects
NCCCCN [putrescine, butane-1,4-diamine]	did not have significant effects
EGF: recombinant human EGF, AF-100-15 from Peprotech (NSDSECPLSHDGYCLHDGVCMYIEALDKYACNCVVGYIGERCQYRDLKWWELR; Epidermal growth factor; UniProt P01133 971-1023, looked up)	significantly decreased differentiation
FGF: recombinant human FGF2, 100-18B from Peprotech	did not have significant effects
insulin: recombinant human insulin, 10-365 from Peprotech	significantly decreased differentiation

What follows are molecules tested on MSC cells (assay: PPARγ agonist testing in 2D adipogenic differentiation). Conditions: 12 days, indomethacin 50 μM, others 10 μM.
Assay type: cell-based, bovine
Description: as §1, §2
MSC cells were cultured as described in Example 2. With the exception that indomethacin (50 μM; 17378 from Sigma Aldrich) was replaced with one of the following three PPARΥ agonists to test their efficiency: magnolol (M3445 from Sigma Aldrich) at 10 μM; honokiol (H4914 from Sigma Aldrich) at 10 μM and amorfrutin B (SMB00532 from Sigma Aldrich) at 10 μM.

Molecule	adipogenic differentiation in DMAD with this PPARγ agonist	level of differentiation, ranking among the PPARγ agonists
COc1cc(CCc2ccccc2)c(C(=O)O)c(O)c1C/C=C(\C)CCC=C(C)C [amorfrutin B]	able to undergo adipogenic differentiation	
C=CCc1ccc(O)c(-c2ccc(O)c(CC=C)c2)c1 [honokiol]	able to undergo adipogenic differentiation	
COc1ccc2c(c1)c(CC(=O)O)c(C)n2C(=O)c1ccc(Cl)cc1 [indomethacin]	able to undergo adipogenic differentiation	highest level of differentiation
C=CCc1ccc(O)c(-c2cc(CC=C)ccc2O)c1 [magnolol]	able to undergo adipogenic differentiation	highest level of differentiation
